# Experimental data: patent publication US20150344457A1, “METHODS OF INHIBITING PRMT5” (EPIZYME, INC., priority 2012, published 2015)
# Tested on: Z-138 cells
# Test: Z-138 Methylation Assay (In Cell Western for symmetric di-methyl arginine and DNA content)
# Type: cell-based
# Conditions: Homo sapiens, Table D-2, read-out: ICW EC50
# Outline: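 Symmetric di-methyl arginine signal (800 nm) ratioed to DNA content (700 nm) by In Cell Western after four days of compound treatment of Z-138 suspension cells seeded at 50,000 cells/mL. Percent inhibition set between DMSO and 3 μM reference wells; IC50 curves from triplicates.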
row,EC50 [µM],Compound
1,1 to 10,N#Cc1ccccc1-c1cccc(OCC(O)CN2CCc3ccccc3C2)c1 (stereo not drawn) [Compound D93]
2,1 to 10,N#Cc1ccc(-c2cccc(OCC(O)CN3CCc4ccccc4C3)c2)cc1 (stereo not drawn) [Compound D94]
3,1 to 10,Oc1cccc(-c2cccc(OCC(O)CN3CCc4ccccc4C3)c2)c1 (stereo not drawn) [Compound D95]
